The values below come from patent US7807641B2, “Methods and reagents for treating glucose metabolic disorders” (Curis, Inc., priority 1999, dated 2010).

Where two headings read alike, the source gives them in different places. Numbered stars: 1 amine (or outer) side, 2 acyl side, 3 side chain; on linkers, the order of the positions; unused ones are H or OH. Bridge positions count the residues as written; N and C are the ends. Square brackets hold non-standard residues; d marks the D form. Ends that are not written are not given here. Peptide text beside a SMILES is read from it. I, II: the chains in the order shown. Actinocin(9to1) = Cc1c2oc3c(C)ccc(C(=O)[*:1])c3nc-2c(C(=O)[*:2])c(N)c1=O; NMeV = CN[C@H](C(=O)O)C(C)C; Sar = CNCC(=O)O

One assay deals with Fetal rat islets. Kind of assay: Insulin content of cultured fetal rat islets. Conditions: 200μ/ml PYY for 5 days, actinomycin D at 0.1, 0.2, 0.5 and 1.0 μg/ml for the last 16 hours. The assay is classed as cell-based. From the text: (§1) Fetal rat islets were obtained as follows. […] Fetuses were removed from the uterus.
The next assay deals with e21 islets. Kind of assay: IBMX stimulated calcium influx in e21 islets. In kind it is cell-based, rat. The conditions noted are these: 1 μM IBMX in 3 mM (low) glucose; non-glucose responsive e21 islets. The procedure:
as §1
E21 islet were isolated and cultured according to Example 1. Islets were then treated with 17 mM glucose or 1 μM IBMX in 3 mM (low) glucose (FIG. 2).

Assay [1] deals with small ducts from rat pancreas. Conditions: cited from earlier work.
The test system of another assay is E21 fetal islets. Description: Glucose-stimulated insulin release (static insulin release, RIA) in cultured e21 fetal rat islets. Conditions: e21 fetal islets cultured for 5 days with 200 ng/ml peptide.
Where [2] appears, read: confluent duct monolayer, single treatment preferentially 48 hr.

Take `Cc1c2oc3c(C)ccc(C(=O)N[C@@H]4C(=O)N[C@H](C(C)C)C(=O)N5CCC[C@H]5C(=O)N(C)CC(=O)N(C)[C@@H](C(C)C)C(=O)O[C@@H]4C)c3nc-2c(C(=O)N[C@@H]2C(=O)N[C@H](C(C)C)C(=O)N3CCC[C@H]3C(=O)N(C)CC(=O)N(C)[C@@H](C(C)C)C(=O)O[C@@H]2C)c(N)c1=O` [Actinomycin D, actinomycin D] (I: T[dV]P[Sar][NMeV] / II: T[dV]P[Sar][NMeV]; ester I:1-I:C, II:1-II:C; linker I:N-II:N via Actinocin(9to1)): the “overall islet insulin content” value with Fetal rat islets is given as “did not significantly decrease overall islet insulin content”. As to `CC(C)Cn1c(=O)n(C)c(=O)c2[nH]cnc21` [IBMX], the intracellular calcium influx entry with e21 islets is reported as “induced a calcium influx”. Take `CCCC(=O)[O-].[Na+]` [Na-Butyrate]: the induction of differentiation result in assay [1] (setting [2]) is “found to induce differentiation”. Consider `CCCC(=O)Nc1ncnc2c1ncn2[C@@H]1O[C@@H]2COP(=O)(O)O[C@H]2[C@H]1OC(=O)CCC` [dibutyrl cAMP], for which, in assay [1] (setting [2]), the induction of differentiation result is “found to induce differentiation”. As to “PPP: related peptide sharing approximately 70% amino acid homology with PYY; probably pancreatic polypeptide (PP) (APLEPVYPGDNATPEQMAQYAADLRRYINMLTRPRY; ends and bridges not checked; UniProt P01298 30-65, looked up)”, the “gain of glucose responsivity (glucose-stimulated insulin release)” value in the assay on E21 fetal islets is listed as “did not stimulate gain of glucose responsivity”.

Regarding cholera toxin, the induction of differentiation entry in assay [1] is “found to induce differentiation”. In the case of neuropeptide Y [NPY], the “gain of glucose responsivity (glucose-stimulated insulin release)” value with E21 fetal islets is on record as “did not stimulate gain of glucose responsivity”.
